Measured values as given in the supplement of paper PMC11208160.

Experiment: recombinant barcode read abundance after kanamycin selection (control-corrected) (log10(CPM+1)); higher = more efficient recombination; sequences stand for … in AGTGCAGAGAAAATCGGCCAGTTTTCTCTGCCTGCAGTCCGCATGCCGT…AGATTTATGCAGCGGACTGCCTTTCTCCCAAAGTGATAAACCGGACAGTATCATGGACCGGTTTTCCCGGTAATCCGTATTTGCAAGGTTGGTTTCACT; site = the 11-nt target
Procedure: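 Pooled E. coli target-specificity screen for the IS621 bridge recombinase. Each library plasmid pairs an 11-nt target (CT core) with a bridge RNA whose target-binding loop (9-nt LTG + 4-nt RTG) is reprogrammed; the rest of the 177-nt WT IS621 bridge RNA scaffold is fixed. The plasmid is co-electroporated with a WT donor plasmid; recombinase is induced with 0.1 mM IPTG and recombinants are selected on kanamycin. Recombinant barcodes are sequenced, converted to CPM, averaged over two biological replicates and corrected by the unselected control CPM. Molecule = full bridge RNA written as DNA: LTG = specificity nt 1-9, RTG = reverse complement of specificity nt 8-11, in the WT scaffold.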
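Further: IS621 recombinase and bridge RNA in Escherichia coli cells.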

With “AATTCGACTTGGGTTCTAACCTGTTGCCT (site AGTTCGACTAG)” the “recombinant barcode read abundance (log10)” value was 0.222.

In the case of “AATTCGACTTGGGTTCTAACCTGTTGCCT (site ATTTCGACTAG)”, the “recombinant barcode read abundance (log10)” value is reported as 0.

With “AATTGTCCTTGGGTTCTAACCTGTTGCTT (site AATTGTCCTAA)” the “recombinant barcode read abundance (log10)” value was 0.246.

In the case of “AATTGTCCTTGGGTTCTAACCTGTTGCTT (site AATTGTCCTAC)”, the “recombinant barcode read abundance (log10)” value is reported as 0.257.

For “AATTGTCCTTGGGTTCTAACCTGTTGCTT (site AATTGTCCTAG)”, the “recombinant barcode read abundance (log10)” value was 0.0453.

With “AATTGTCCTTGGGTTCTAACCTGTTGCTT (site AATTGTCCTAT)” the “recombinant barcode read abundance (log10)” value was 0.125.

With “AATTGTTCTTGGGTTCTAACCTGTTGCCT (site AATGCTTCTAG)” the “recombinant barcode read abundance (log10)” value was 0.028.

With “AATTGTTCTTGGGTTCTAACCTGTTGCCT (site AATTGTTCTAG)” the “recombinant barcode read abundance (log10)” value was 0.253.

With “AATTTCTCTTGGGTTCTAACCTGTTGCCT (site AATTTCTCTAG)” the “recombinant barcode read abundance (log10)” value was 0.0321.

For “AATTTCTCTTGGGTTCTAACCTGTTGCCT (site CATTTCTCTAG)”, the “recombinant barcode read abundance (log10)” value was 0.0907.

With “AATTTCTCTTGGGTTCTAACCTGTTGCCT (site GATTTCTCTAG)” the “recombinant barcode read abundance (log10)” value was 0.496.

In the case of “AATTTCTCTTGGGTTCTAACCTGTTGCCT (site TATTTCTCTAG)”, the “recombinant barcode read abundance (log10)” value is reported as 0.0924.

With “ACAAAGACTTGGGTTCTAACCTGTTGCGC (site ACAAAGACTGC)” the “recombinant barcode read abundance (log10)” value was 0.656.

With “ACAAAGACTTGGGTTCTAACCTGTTGCGC (site ACACAGACTGC)” the “recombinant barcode read abundance (log10)” value was 0.242.

In the case of “ACAAAGACTTGGGTTCTAACCTGTTGCGC (site ACAGAGACTGC)”, the “recombinant barcode read abundance (log10)” value is reported as 0.326.

With “ACAAAGACTTGGGTTCTAACCTGTTGCGC (site ACATAGACTGC)” the “recombinant barcode read abundance (log10)” value was 0.137.

In the case of “ACAAAGGCTTGGGTTCTAACCTGTTGCGG (site ACAAAAGCTCC)”, the “recombinant barcode read abundance (log10)” value is reported as 1.69.

With “ACAAAGGCTTGGGTTCTAACCTGTTGCGG (site ACAAAGGCTCC)” the “recombinant barcode read abundance (log10)” value was 2.51.

In the case of “ACAAGACCTTGGGTTCTAACCTGTTGCAT (site ACAAGACCTAT)”, the “recombinant barcode read abundance (log10)” value is reported as 1.47.

For “ACAAGACCTTGGGTTCTAACCTGTTGCAT (site TTCTAGTCTTA)”, the “recombinant barcode read abundance (log10)” value was 0.0713.

For “ACAATACCTTGGGTTCTAACCTGTTGCCT (site ACAATACCTAG)”, the “recombinant barcode read abundance (log10)” value was 1.16.

For “ACAATACCTTGGGTTCTAACCTGTTGCCT (site ATAATACCTAG)”, the “recombinant barcode read abundance (log10)” value was 0.143.

For “ACAATAGCTTGGGTTCTAACCTGTTGCTG (site ACAATAGCTCA)”, the “recombinant barcode read abundance (log10)” value was 0.738.

With “ACAATAGCTTGGGTTCTAACCTGTTGCTG (site ACACTAGCTCA)” the “recombinant barcode read abundance (log10)” value was 0.0138.

In the case of “ACAATAGCTTGGGTTCTAACCTGTTGCTG (site ACAGTAGCTCA)”, the “recombinant barcode read abundance (log10)” value is reported as 0.0118.

For “ACAATAGCTTGGGTTCTAACCTGTTGCTG (site ACATTAGCTCA)”, the “recombinant barcode read abundance (log10)” value was 0.0649.

For “ACAATGACTTGGGTTCTAACCTGTTGCCT (site ACAATGACTAG)”, the “recombinant barcode read abundance (log10)” value was 0.904.

With “ACAATGACTTGGGTTCTAACCTGTTGCCT (site ACAGTGACTAG)” the “recombinant barcode read abundance (log10)” value was 0.132.

In the case of “ACACCGCCTTGGGTTCTAACCTGTTGCCT (site ACACCGCCTAG)”, the “recombinant barcode read abundance (log10)” value is reported as 0.299.

For “ACACCGCCTTGGGTTCTAACCTGTTGCCT (site CCACCGCCTAG)”, the “recombinant barcode read abundance (log10)” value was 0.118.

For “ACACCGCCTTGGGTTCTAACCTGTTGCCT (site GCACCGCCTAG)”, the “recombinant barcode read abundance (log10)” value was 0.192.

For “ACACCGCCTTGGGTTCTAACCTGTTGCCT (site TCACCGCCTAG)”, the “recombinant barcode read abundance (log10)” value was 0.118.

In the case of “ACACGTGCTTGGGTTCTAACCTGTTGCGA (site ACACGTGCTTC)”, the “recombinant barcode read abundance (log10)” value is reported as 1.46.

With “ACACGTGCTTGGGTTCTAACCTGTTGCGA (site CAGAAGTCTAA)” the “recombinant barcode read abundance (log10)” value was 0.215.

For “ACACTAGCTTGGGTTCTAACCTGTTGCTG (site ACAATAGCTCA)”, the “recombinant barcode read abundance (log10)” value was 0.313.

In the case of “ACACTAGCTTGGGTTCTAACCTGTTGCTG (site ACACTAGCTCA)”, the “recombinant barcode read abundance (log10)” value is reported as 1.19.

For “ACACTAGCTTGGGTTCTAACCTGTTGCTG (site ACAGTAGCTCA)”, the “recombinant barcode read abundance (log10)” value was 0.445.

For “ACACTAGCTTGGGTTCTAACCTGTTGCTG (site ACATTAGCTCA)”, the “recombinant barcode read abundance (log10)” value was 0.0774.

In the case of “ACAGAGACTTGGGTTCTAACCTGTTGCGC (site ACAAAGACTGC)”, the “recombinant barcode read abundance (log10)” value is reported as 0.372.

For “ACAGAGACTTGGGTTCTAACCTGTTGCGC (site ACACAGACTGC)”, the “recombinant barcode read abundance (log10)” value was 0.127.

For “ACAGAGACTTGGGTTCTAACCTGTTGCGC (site ACAGAGACTGC)”, the “recombinant barcode read abundance (log10)” value was 1.46.

With “ACAGAGACTTGGGTTCTAACCTGTTGCGC (site ACATAGACTGC)” the “recombinant barcode read abundance (log10)” value was 0.221.

For “ACAGCCTCTTGGGTTCTAACCTGTTGCCT (site ACAGCCTCTAG)”, the “recombinant barcode read abundance (log10)” value was 2.84.

With “ACAGCCTCTTGGGTTCTAACCTGTTGCCT (site ACAGGCTCTAG)” the “recombinant barcode read abundance (log10)” value was 0.156.

For “ACAGGCTCTTGGGTTCTAACCTGTTGCCT (site ACAGCCTCTAG)”, the “recombinant barcode read abundance (log10)” value was 0.0406.

In the case of “ACAGGCTCTTGGGTTCTAACCTGTTGCCT (site ACAGGCTCTAG)”, the “recombinant barcode read abundance (log10)” value is reported as 1.82.

In the case of “ACAGGTACTTGGGTTCTAACCTGTTGCCT (site ACAGGTACTAG)”, the “recombinant barcode read abundance (log10)” value is reported as 1.18.

In the case of “ACAGGTACTTGGGTTCTAACCTGTTGCCT (site CCAGGTACTAG)”, the “recombinant barcode read abundance (log10)” value is reported as 0.428.

With “ACAGGTACTTGGGTTCTAACCTGTTGCCT (site GCAGGTACTAG)” the “recombinant barcode read abundance (log10)” value was 0.0917.

For “ACAGGTACTTGGGTTCTAACCTGTTGCCT (site TCAGGTACTAG)”, the “recombinant barcode read abundance (log10)” value was 0.456.

In the case of “ACAGGTCCTTGGGTTCTAACCTGTTGCGA (site ACAGGTCCTTC)”, the “recombinant barcode read abundance (log10)” value is reported as 3.05.

In the case of “ACAGGTCCTTGGGTTCTAACCTGTTGCGA (site GTCATGTCTCA)”, the “recombinant barcode read abundance (log10)” value is reported as 0.

For “ACAGTATCTTGGGTTCTAACCTGTTGCTG (site ACAGTATCTCA)”, the “recombinant barcode read abundance (log10)” value was 0.479.

In the case of “ACAGTATCTTGGGTTCTAACCTGTTGCTG (site TGCAATACTAT)”, the “recombinant barcode read abundance (log10)” value is reported as 0.

In the case of “ACATAGTCTTGGGTTCTAACCTGTTGCCT (site ACATAGTCTAG)”, the “recombinant barcode read abundance (log10)” value is reported as 1.75.

In the case of “ACATAGTCTTGGGTTCTAACCTGTTGCCT (site AGATACTCTAG)”, the “recombinant barcode read abundance (log10)” value is reported as 0.0816.

In the case of “ACATATCCTTGGGTTCTAACCTGTTGCGT (site ACATATCCTAC)”, the “recombinant barcode read abundance (log10)” value is reported as 1.78.

With “ACATATCCTTGGGTTCTAACCTGTTGCGT (site ACCTACCCTAC)” the “recombinant barcode read abundance (log10)” value was 0.0409.

In the case of “ACATGAACTTGGGTTCTAACCTGTTGCCT (site ACATGAACTAG)”, the “recombinant barcode read abundance (log10)” value is reported as 1.47.

With “ACATGAACTTGGGTTCTAACCTGTTGCCT (site ACCTGAACTAG)” the “recombinant barcode read abundance (log10)” value was 0.0918.

In the case of “ACATGAACTTGGGTTCTAACCTGTTGCCT (site ACGTGAACTAG)”, the “recombinant barcode read abundance (log10)” value is reported as 0.0989.

In the case of “ACATGAACTTGGGTTCTAACCTGTTGCCT (site ACTTGAACTAG)”, the “recombinant barcode read abundance (log10)” value is reported as 0.101.

In the case of “ACATGCACTTGGGTTCTAACCTGTTGCAT (site ACATGAACTAT)”, the “recombinant barcode read abundance (log10)” value is reported as 0.0673.

With “ACATGCACTTGGGTTCTAACCTGTTGCAT (site ACATGCACTAT)” the “recombinant barcode read abundance (log10)” value was 1.05.

With “ACATGCACTTGGGTTCTAACCTGTTGCAT (site ACATGGACTAT)” the “recombinant barcode read abundance (log10)” value was 0.0168.

In the case of “ACATGCACTTGGGTTCTAACCTGTTGCAT (site ACATGTACTAT)”, the “recombinant barcode read abundance (log10)” value is reported as 0.116.

With “ACATGTCCTTGGGTTCTAACCTGTTGCAT (site ACATGTCCTAA)” the “recombinant barcode read abundance (log10)” value was 0.374.

For “ACATGTCCTTGGGTTCTAACCTGTTGCAT (site ACATGTCCTAC)”, the “recombinant barcode read abundance (log10)” value was 1.24.

In the case of “ACATGTCCTTGGGTTCTAACCTGTTGCAT (site ACATGTCCTAG)”, the “recombinant barcode read abundance (log10)” value is reported as 0.137.

For “ACATGTCCTTGGGTTCTAACCTGTTGCAT (site ACATGTCCTAT)”, the “recombinant barcode read abundance (log10)” value was 1.99.

With “ACATTGTCTTGGGTTCTAACCTGTTGCCT (site ACATTGTCTAG)” the “recombinant barcode read abundance (log10)” value was 1.73.

With “ACATTGTCTTGGGTTCTAACCTGTTGCCT (site ACCTTGTCTAG)” the “recombinant barcode read abundance (log10)” value was 0.0705.

For “ACATTGTCTTGGGTTCTAACCTGTTGCCT (site ACGTTGTCTAG)”, the “recombinant barcode read abundance (log10)” value was 0.0669.

In the case of “ACATTGTCTTGGGTTCTAACCTGTTGCCT (site ACTTTGTCTAG)”, the “recombinant barcode read abundance (log10)” value is reported as 0.284.

For “ACATTTACTTGGGTTCTAACCTGTTGCCT (site ACATTTACTAG)”, the “recombinant barcode read abundance (log10)” value was 0.0855.

With “ACATTTACTTGGGTTCTAACCTGTTGCCT (site TCATATACTAG)” the “recombinant barcode read abundance (log10)” value was 0.242.

With “ACATTTCCTTGGGTTCTAACCTGTTGCAT (site ACATTTCCTAT)” the “recombinant barcode read abundance (log10)” value was 0.8.

For “ACATTTCCTTGGGTTCTAACCTGTTGCAT (site TAGAACTCTGC)”, the “recombinant barcode read abundance (log10)” value was 0.105.

In the case of “ACCAAAGCTTGGGTTCTAACCTGTTGCCA (site ACCAAAGCTTG)”, the “recombinant barcode read abundance (log10)” value is reported as 0.115.

With “ACCAAAGCTTGGGTTCTAACCTGTTGCCA (site ACCACAGCTAG)” the “recombinant barcode read abundance (log10)” value was 0.137.

With “ACCAAATCTTGGGTTCTAACCTGTTGCCG (site ACCAAATCTCG)” the “recombinant barcode read abundance (log10)” value was 0.0782.

With “ACCAAATCTTGGGTTCTAACCTGTTGCCG (site ACCAAATCTTA)” the “recombinant barcode read abundance (log10)” value was 0.0479.
